Laboratory results published in patent US20240350493A1 (Kadmon Corporation, LLC, priority 2022, published 2024).
“Also recorded” adds a separate entry of the source. Read-outs that look alike come from different tables or passages of the source. Marks after values point to notes of the source that are not given here.

How the values were obtained:
CYP2C8 = CYP2C8 (Homo sapiens, UniProt P10632); assay: incubations with recombinant enzymes; assay type: in vitro ADME
CYP1A2 = CYP1A2 (Homo sapiens, UniProt P05177); assay: incubations with recombinant enzymes; assay type: in vitro ADME
CYP1A2, sequence (P05177 whole entry): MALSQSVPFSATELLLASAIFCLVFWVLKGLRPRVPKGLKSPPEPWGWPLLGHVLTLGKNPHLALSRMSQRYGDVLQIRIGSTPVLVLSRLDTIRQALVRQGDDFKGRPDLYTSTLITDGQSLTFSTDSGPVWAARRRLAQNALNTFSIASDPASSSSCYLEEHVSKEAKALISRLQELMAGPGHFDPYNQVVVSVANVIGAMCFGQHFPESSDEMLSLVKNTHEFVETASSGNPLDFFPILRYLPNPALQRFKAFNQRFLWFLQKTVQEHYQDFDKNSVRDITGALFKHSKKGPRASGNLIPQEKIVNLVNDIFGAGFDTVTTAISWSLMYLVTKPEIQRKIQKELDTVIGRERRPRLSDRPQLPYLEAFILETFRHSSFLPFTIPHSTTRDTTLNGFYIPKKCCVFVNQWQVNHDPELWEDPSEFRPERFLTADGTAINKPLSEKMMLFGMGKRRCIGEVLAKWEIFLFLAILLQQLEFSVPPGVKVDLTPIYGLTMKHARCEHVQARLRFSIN

CYP2C19 = CYP2C19 (Homo sapiens, UniProt P33261); assay: incubations with recombinant enzymes; assay type: in vitro ADME
CYP2C19, sequence (P33261 whole entry): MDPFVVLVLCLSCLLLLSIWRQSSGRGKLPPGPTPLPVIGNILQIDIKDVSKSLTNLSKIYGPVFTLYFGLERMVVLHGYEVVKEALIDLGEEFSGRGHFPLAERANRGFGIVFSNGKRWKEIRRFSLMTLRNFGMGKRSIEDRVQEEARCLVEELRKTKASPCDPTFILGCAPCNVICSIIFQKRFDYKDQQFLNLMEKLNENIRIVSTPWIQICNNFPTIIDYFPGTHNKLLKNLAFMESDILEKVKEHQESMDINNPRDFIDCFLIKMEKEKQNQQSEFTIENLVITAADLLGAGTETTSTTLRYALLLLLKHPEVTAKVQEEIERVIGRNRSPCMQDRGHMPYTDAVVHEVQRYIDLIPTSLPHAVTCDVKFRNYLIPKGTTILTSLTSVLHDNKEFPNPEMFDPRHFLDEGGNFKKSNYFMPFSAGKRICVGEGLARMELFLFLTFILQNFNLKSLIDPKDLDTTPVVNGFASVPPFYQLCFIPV

[1] = phase I two-part drug-drug interaction study, plasma pharmacokinetics (Example 1); assay type: in vivo, human; conditions: for Cmax / Tmax / AUC from 0 to 24 h / AUC(0-inf) / AUC(0-t) / half-life: male, human, plasma, oral; for Tmax: read-out: Tmax, median (range)
Source text: The secondary objective was to provide additional information on the safety and tolerability of this dose regimen in healthy males.
This was a single center, non-randomized, DDI study in 35 (Part 1) and 38 (Part 2) healthy males. The key inclusion criterion was males aged 18 to 55 years (inclusive). […] In Part 2, co-administration with omeprazole was studied. The study design is illustrated in FIG. 1.
At least a 2-to 8-day washout occurred between each period to account for a minimum of 5 half-lives of the active moieties dosed in the preceding period.
Blood samples were collected into 6 mL K,EDTA tubes and were processed within 30 minutes of collection. The resultant plasma was then frozen within 90 minutes of collection and stored at […] until shipment to the bioanalytical laboratory.
For each comparison, PK parameters were natural log transformed and analyzed using mixed effect modeling with treatment included as a fixed effect and subject as a random effect. Adjusted geometric mean ratios (GMRs) and corresponding 90% CIs were calculated.

[2] = 200 mg belumosudil single dose + itraconazole
[3] = 200 mg belumosudil single dose + rabeprazole
[4] = 200 mg belumosudil single dose + rifampicin
[5] = 200 mg belumosudil single dose alone
[6] = coadministration of rabeprazole

CYP2C8, sequence (P10632 whole entry): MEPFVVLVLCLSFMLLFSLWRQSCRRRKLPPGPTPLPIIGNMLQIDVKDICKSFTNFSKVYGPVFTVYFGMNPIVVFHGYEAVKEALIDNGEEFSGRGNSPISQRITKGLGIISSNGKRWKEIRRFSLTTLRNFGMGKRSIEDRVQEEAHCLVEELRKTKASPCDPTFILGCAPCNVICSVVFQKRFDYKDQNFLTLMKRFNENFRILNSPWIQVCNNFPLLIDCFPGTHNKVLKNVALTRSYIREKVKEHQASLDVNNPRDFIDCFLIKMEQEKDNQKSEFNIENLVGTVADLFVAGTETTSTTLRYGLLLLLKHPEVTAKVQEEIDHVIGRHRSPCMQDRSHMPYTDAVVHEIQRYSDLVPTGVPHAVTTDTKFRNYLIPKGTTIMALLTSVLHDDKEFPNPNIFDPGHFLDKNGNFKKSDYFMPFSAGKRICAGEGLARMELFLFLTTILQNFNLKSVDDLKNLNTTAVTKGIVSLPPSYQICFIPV

With `CC(C)NC(=O)COc1cccc(-c2nc(Nc3ccc4[nH]ncc4c3)c3ccccc3n2)c1` [Belumosudil, 2-{3-[4-(1H-indazol-5-ylamino)-2-quinazolinyl]phenoxy}-N-(propan-2-yl) acetamide] the “share of belumosudil metabolism” value (CYP2C8) was 14.2%, the “share of belumosudil metabolism” value (CYP1A2) was less than 5% and the “share of belumosudil metabolism” value (CYP2C19) was less than 5%. For the same molecule, the “CL/F, arithmetic mean (SD)” value [1, 2] was 318 (117) ^b mL/min, the “CL/F, geometric mean (geometric CV %)” value [1, 2] was 298 (38.1) ^b; mL/min and the “CL/F, arithmetic mean (SD)” value [1, 3] was 2480 (2410) ^d mL/min. The “CL/F, geometric mean (geometric CV %)” value [1, 3] was 1980 (65.8) ^d; mL/min, the “CL/F, arithmetic mean (SD)” value [1, 4] was 1400 (450) ^c mL/min and the “CL/F, geometric mean (geometric CV %)” value [1, 4] was 1330 (34.5) ^c; mL/min. For the same molecule, the “CL/F, arithmetic mean (SD)” value [1, 5] was 385 (116) ^a mL/min, the “CL/F, geometric mean (geometric CV %)” value [1, 5] was 367 (33.3) ^a; mL/min and the “change in belumosudil exposure” value ([1]; coadministration of itraconazole) was “no clinically meaningful effect; also recorded: No clinically relevant change”. The “decrease in AUC0-24 vs belumosudil alone” value ([1]; coadministration of omeprazole) was 53%, the “decrease in AUC vs belumosudil alone” value ([1]; coadministration of omeprazole) was 47% and the “decrease in Cmax (first dose) vs belumosudil alone” value ([1]; coadministration of omeprazole) was 68%. For the same molecule, the “decrease in AUC vs belumosudil alone” value [1, 6] was 80%, the “decrease in AUCinf vs belumosudil alone” value [1, 6] was roughly 80% and the “decrease in AUClast vs belumosudil alone” value [1, 6] was roughly 82%. The “decrease in AUCinf vs belumosudil alone” value ([1]; coadministration of rifampicin) was roughly 72%, the “decrease in AUClast vs belumosudil alone” value ([1]; coadministration of rifampicin) was roughly 72% and the “decrease in AUC vs belumosudil alone” value ([1]; coadministration of rifampin) was 72%. The Cmax ([1]; 200 mg belumosudil BID + omeprazole, first dose, read-out: Cmax, arithmetic mean (SD)) was 893 ng/mL, the Cmax ([1]; 200 mg belumosudil BID + omeprazole, first dose, read-out: Cmax, geometric mean (geometric CV %)) was 575 ng/mL and the Tmax ([1]; 200 mg belumosudil BID + omeprazole, first dose) was 4 h. For the same molecule, the Cmax ([1]; 200 mg belumosudil BID + omeprazole, second dose, read-out: Cmax, arithmetic mean (SD)) was 1050 ng/mL, the Cmax ([1]; 200 mg belumosudil BID + omeprazole, second dose, read-out: Cmax, geometric mean (geometric CV %)) was 903 ng/mL and the Tmax ([1]; 200 mg belumosudil BID + omeprazole, second dose) was 17 h. For the same molecule, the AUC from 0 to 24 h ([1]; 200 mg belumosudil BID + omeprazole, read-out: AUC0-24, arithmetic mean (SD)) was 9100 ng·h/mL, the AUC from 0 to 24 h ([1]; 200 mg belumosudil BID + omeprazole, read-out: AUC0-24, geometric mean (geometric CV %)) was 7970 ng·h/mL and the AUC(0-inf) ([1]; 200 mg belumosudil BID + omeprazole, read-out: AUCinf, arithmetic mean (SD)) was 11200 ng·h/mL. For the same molecule, the AUC(0-inf) ([1]; 200 mg belumosudil BID + omeprazole, read-out: AUCinf, geometric mean (geometric CV %)) was 9880 ng·h/mL, the AUC(0-t) ([1]; 200 mg belumosudil BID + omeprazole, read-out: AUClast, arithmetic mean (SD)) was 10900 ng·h/mL and the AUC(0-t) ([1]; 200 mg belumosudil BID + omeprazole, read-out: AUClast, geometric mean (geometric CV %)) was 9680 ng·h/mL. The half-life ([1]; 200 mg belumosudil BID + omeprazole, read-out: t1/2, arithmetic mean (SD) (converted)) was 6.55 h, the half-life ([1]; 200 mg belumosudil BID + omeprazole, read-out: t1/2, geometric mean (geometric CV %) (converted)) was 6.16 h and the AUC from 0 to 24 h ([1]; 200 mg belumosudil single dose + itraconazole, read-out: AUC0-24, arithmetic mean (SD)) was 11000 ng·h/mL. It also gave an AUC from 0 to 24 h ([1]; 200 mg belumosudil single dose + itraconazole, read-out: AUC0-24, geometric mean (geometric CV %)) of 10400 ng·h/mL, an AUC(0-inf) ([1]; 200 mg belumosudil single dose + itraconazole, read-out: AUCinf, arithmetic mean (SD)) of 11900 ng·h/mL and an AUC(0-inf) ([1]; 200 mg belumosudil single dose + itraconazole, read-out: AUCinf, geometric mean (geometric CV %)) of 11200 ng·h/mL. The AUC(0-t) ([1]; 200 mg belumosudil single dose + itraconazole, read-out: AUClast, arithmetic mean (SD)) was 11600 ng·h/mL, the AUC(0-t) ([1]; 200 mg belumosudil single dose + itraconazole, read-out: AUClast, geometric mean (geometric CV %)) was 10900 ng·h/mL and the Cmax ([1]; 200 mg belumosudil single dose + itraconazole, read-out: Cmax, arithmetic mean (SD)) was 2230 ng/mL. For the same molecule, the Cmax ([1]; 200 mg belumosudil single dose + itraconazole, read-out: Cmax, geometric mean (geometric CV %)) was 2130 ng/mL, the Tmax [1, 2] was 3 h and the half-life ([1]; 200 mg belumosudil single dose + itraconazole, read-out: t1/2, arithmetic mean (SD) (converted)) was 8.79 h. It also gave a half-life ([1]; 200 mg belumosudil single dose + itraconazole, read-out: t1/2, geometric mean (geometric CV %) (converted)) of 8.27 h, an AUC from 0 to 24 h ([1]; 200 mg belumosudil single dose + rabeprazole, read-out: AUC0-24, arithmetic mean (SD)) of 1730 ng·h/mL and an AUC from 0 to 24 h ([1]; 200 mg belumosudil single dose + rabeprazole, read-out: AUC0-24, geometric mean (geometric CV %)) of 1510 ng·h/mL. For the same molecule, the AUC(0-inf) ([1]; 200 mg belumosudil single dose + rabeprazole, read-out: AUCinf, arithmetic mean (SD)) was 1940 ng·h/mL, the AUC(0-inf) ([1]; 200 mg belumosudil single dose + rabeprazole, read-out: AUCinf, geometric mean (geometric CV %)) was 1680 ng·h/mL and the AUC(0-t) ([1]; 200 mg belumosudil single dose + rabeprazole, read-out: AUClast, arithmetic mean (SD)) was 1850 ng·h/mL. It also gave an AUC(0-t) ([1]; 200 mg belumosudil single dose + rabeprazole, read-out: AUClast, geometric mean (geometric CV %)) of 1580 ng·h/mL, a Cmax ([1]; 200 mg belumosudil single dose + rabeprazole, read-out: Cmax, arithmetic mean (SD)) of 262 ng/mL and a Cmax ([1]; 200 mg belumosudil single dose + rabeprazole, read-out: Cmax, geometric mean (geometric CV %)) of 227 ng/mL. The Tmax [1, 3] was 5 h.
